The results in this text go back to patent US7767824B2, “Heterocyclic compounds and cerebral function improvers containing the same as the active ingredient” (Zenyaku Kogyo Kabushiki Kaisha, priority 2001, dated 2010).

Marks after values point to notes of the source that are not given here.

In data set [1] the test system is scopolamine-induced amnesia of rats. Briefly: Effects on scopolamine-induced amnesia, passive avoidance task (oral administration). Format: in vivo, rat. To be noted: 60 min before trial, scopolamine hydrobromide 2 mg/kg i.p., latency 24 h after shock, male Sprague Dawley rats; for inhibition in vivo at 0.01 mg/kg / inhibition in vivo at 1 mg/kg: Rattus norvegicus, po, read-out: Inhibitory rate (%). The text has this: Male rats of the Strague Dawley strain at 8 weeks of age (260±2 g body weight) were used for evaluation through passive avoidance task. The apparatus of passive avoidance task comprises illuminated and dark chambers which are separated from each other by a wall with a door. Floors are constituted by grids made of stainless steel; only the grid in the dark chamber is furnished with wiring for electrification.
Effected on the first and second days of testing was preparative training; each rat was placed in the illuminated chamber and left for 3 minutes to habituate to the apparatus. On the third day of testing, the rats were individually placed in the illuminated chamber and after entering the dark chamber, the door was closed and the floor grid was electrified to deliver electric shock (100 V, 0.4 mA, a period of 0.8 sec). In order to induce amnesia, scopolamine hydrobromide (2 mg/kg) was intraperitoneally injected 20 minutes before the electric shock was delivered. Retention in memory on the electric shock was tested 24 hours later; more specifically, retention in passive avoidance was measured in terms of a time interval (latency) from placement of each rat in the illuminated chamber to its entry into the dark chamber. The latency over 300 seconds was recorded as 300 seconds. Respective test compounds were suspended in an aqueous solution of 1% carboxymethyl cellulose and orally administered at a dose of 0.01 or 1 mg/kg 60 minutes before the trial.
Antiamnesic effects of the test compounds were evaluated by inhibitory rate (%) which is calculated by the following formula:
[formula] wherein T stands for latency and SC, administration of scopolamine hydrobromide. Experimental results are shown in the following table in which, as to each of the test compounds, only the dose showing higher inhibitory rate was indicated.

On to `O=C1N=C2C=CC=CN2C12Cc1ccc(C(F)(F)F)cc1C2` (centres unmarked) [compound 26, spiro[imidazo[1,2-a]pyridin-2(3H)-one-3,2′-(5′-trifluoromethylindan)]], for which the “Inhibitory rate (%)” value in data set [1] (dose 1 mg/kg p.o.) is given as 74.3** %.
As to `Oc1nc2ccccn2c1Cc1ccc2ccccc2c1` [compound 10, 2-hydroxy-3-(2-naphtylmethyl)imidazo[1,2-a]pyridin], the “Inhibitory rate (%)” value in data set [1] (dose 0.01 mg/kg p.o.) is listed as 40.8* %.
Same read-out and setting: the same measure for `O=C1N=C2C=CC=CN2C12Cc1cc3nsnc3cc1C2` [compound 23, spiro[imidazo[1,2-a]pyridin-2(3H)-one-3,2′-((1,2,5-thiadiazo)[4,5-c]indan)]]: 88.2** %; for “spiro[imidazo[2,1-a]isoquinolin-2(3H)-one-3,21-(1,2,5-thiadiazo)[4,5-c]indan)] [compound 24]”: 97.1** %.
For the compound `O=C1N=C2N=CC=CN2C12Cc1ccccc1C2` [compound 25, spiro[imidazo[1,2-a]pyrimidin-2(3H)-one-3,2′-indan]], the “Inhibitory rate (%)” value in data set [1] (dose 1 mg/kg p.o.) is reported as 78.3* %.
For the compound `O=C1N=C2C(OCc3ccccc3)=CC=CN2C12CC=CC2` [compound 29, spiro[8-benzyloxyimidazo[1,2-a]pyridin-2(3H)-one-3,1′-(3′-cyclopentene)]], the “Inhibitory rate (%)” value in data set [1] (dose 1 mg/kg p.o.) was 87.7** %.
As for `CN1C=NC(Cc2ccccc2)(Cc2ccccc2)C1=O` [compound 16, 4,4-dibenzyl-1-methyl-5-oxo-4,5-dihydroimidazol], the inhibition in vivo at 0.01 mg/kg in data set [1] (dose 0.01 mg/kg p.o.) turned out to be 73.3%.
The compound `O=C1N=C2SC=CN2C1(Cc1ccccc1)Cc1ccccc1` [compound 2, 5,5-dibenzylimidazo[2,1-b]thiazol-6(5H)-one] yielded a melting point greater than 300 °C. Besides, in data set [1] (dose 0.01 mg/kg p.o.), the inhibition in vivo at 0.01 mg/kg was determined as 86.9%.
Take `Cc1ccc(CC2(Cc3ccc(C)cc3)C(=O)N=C3SC=CN32)cc1` [compound 4, 5,5-bis(4-methylbenzyl)imidazo[2,1-b]thiazol-6(5H)-one]: the melting point is greater than 300 °C. In addition, the inhibition in vivo at 0.01 mg/kg in data set [1] (dose 0.01 mg/kg p.o.) was determined as 49.8%.
For `O=C1N=C2N=CC=CN2C1(Cc1ccccc1)Cc1ccccc1` [compound 3, 3,3-dibenzylimidazo[1,2-a]pyrimidin-2(3H)-one], in that order: greater than 300 °C and 60.3%.
As for `O=C1N(c2ccccc2)c2ccccc2C1(Cc1ccncc1)Cc1ccncc1` [compound A, 3,3-bis(4-pyridylmethyl)-1-phenylindolin-2-one, reference compound], the inhibition in vivo at 0.01 mg/kg in data set [1] (dose 0.01 mg/kg p.o.) stood at 8.8%. Also, the inhibition in vivo at 1 mg/kg in data set [1] (dose 1 mg/kg p.o.) was determined as 20.9%.
`O=C1N=C2C3=C(C=CN2C12CCCC2)CCCC3` [compound 30, spiro[7,8,9,10-tetrahydroimidazo[2,1-a]isoquinolin-2(3H)-one-3,1′-cyclopentane]]: the “Inhibitory rate (%)” value in data set [1] (dose 1 mg/kg p.o.) is reported as 89.5** %.
Turning to `O=C1N=C2CCCCN2C1(C1CCCCC1)C1CCCCC1` [compound 12, 3,3-dicyclohexyl-5,6,7,8-tetrahydroimidazo[1,2-a]-pyridin-2(3H)-one], the melting point was 218 to 220 °C. Further, the inhibition in vivo at 0.01 mg/kg in data set [1] (dose 0.01 mg/kg p.o.) was found to be 53.5%.
`O=C1N=C2C=CC=CN2C12Cc1ccc(I)cc1C2` (centres unmarked) [compound 20, spiro[imidazo[1,2-a]pyridin-2(3H)-one-3,2′-(5′-iodoindan)]]: the “Inhibitory rate (%)” value in data set [1] (dose 1 mg/kg p.o.) is reported as 72.4** %.
On to `COc1cc2c(cc1OC)C(=O)C(CC1CCN(Cc3ccccc3)CC1)C2` (racemic) [compound C, (R,S)-1-benzyl-4-(5,6-dimethoxy-1-indanon-2-yl)-methylpiperidine, reference compound], for which the inhibition in vivo at 0.01 mg/kg in data set [1] (dose 0.01 mg/kg p.o.) came to 12.5%. In addition, in data set [1] (dose 1 mg/kg p.o.), the inhibition in vivo at 1 mg/kg came to 24.7%.
For `O=C1N=C2C=CC=CN2C12Cc1cccc(F)c1C2` (centres unmarked) [compound 18, spiro[imidazo[1,2-a]pyridin-2(3H)-one-3,2′-(4′-fluoroindan)]], the “Inhibitory rate (%)” value in data set [1] (dose 0.01 mg/kg p.o.) was 90.3** %.
For the compound `CC=CCC1(CC=CC)C(=O)N=C2N=CC=CN21` (centres unmarked) [compound 17, 3,3-di(2-butenyl)imidazo[1,2-a]pyrimidin-2(3H)-one], the melting point is 149.5 °C (dec.). Further, the inhibition in vivo at 0.01 mg/kg in data set [1] (dose 0.01 mg/kg p.o.) amounted to 54.4%.
As for `O=C1N=C2SC=CN2C1(Cc1ccc(F)cc1)Cc1ccc(F)cc1` [compound 1, 5,5-bis(4-fluorobenzyl)imidazo[2,1-b]thiazol-6(5H)-one], the inhibition in vivo at 1 mg/kg in data set [1] (dose 1 mg/kg p.o.) amounted to 56.1%.
Take `O=C1N=C2c3ccccc3C=CN2C12CC=CC2` [compound 28, spiro[imidazo[2,1-a]isoquinolin-2 (3H)-one-3,1′-(3′-cyclopentene)]]: the “Inhibitory rate (%)” value in data set [1] (dose 0.01 mg/kg p.o.) is reported as 88.0** %.
`O=C1N=C2N=CC=CN2C1(Cc1cccs1)Cc1cccs1` [compound 8, 3,3-bis(2-thienylmethyl)imidazo[1,2-a]pyrimidin-2(3H)-one]: the melting point was 192 °C (dec.). Besides, the inhibition in vivo at 0.01 mg/kg in data set [1] (dose 0.01 mg/kg p.o.) stood at 58.9%.
`COc1ccc2c(c1)CC1(C2)C(=O)N=C2C=CC=CN21` (centres unmarked) [compound 19, spiro[imidazo[1,2-a]pyridin-2(3H)-one-3,2′-(5′-methoxyindan)]]: the “Inhibitory rate (%)” value in data set [1] (dose 1 mg/kg p.o.) is reported as 83.4** %.
`O=C1N=C2c3ccccc3C=CN2C12CCCC2` [compound 31, spiro[imidazo[2,1-a]isoquinolin-2(3H)-one-3,1′-cyclopentane]]: the “Inhibitory rate (%)” value in data set [1] (dose 0.01 mg/kg p.o.) is 56.7* %.
Turning to `CCCCC1(CCCC)C(=O)N=C2CCCCN21` [compound 13, 3,3-dibutyl-5,6,7,8-tetrahydroimidazo[1,2-a]pyridin-2 (3H)-one], the melting point was 35 to 40 °C. Moreover, the inhibition in vivo at 1 mg/kg in data set [1] (dose 1 mg/kg p.o.) came out at 49.6%.
On to `N#Cc1ccc(CC2(Cc3ccc(C#N)cc3)C(=O)N=C3SC=CN32)cc1` [compound 5, 5,5-bis(4-cyanobenzyl)imidazo[2,1-b]thiazol-6(5H)-one], for which the melting point lay within 264 to 267 °C. Also, the inhibition in vivo at 0.01 mg/kg in data set [1] (dose 0.01 mg/kg p.o.) worked out at 49.6%.
Take `O=C1N=C2CCCCN2C12Cc1cc3ccccc3cc1C2` [compound 32, spiro[5,6,7,8-tetrahydroimidazo[1,2-a]pyridin-2(3H)-one-3,2′-benzo[f]indan]]: the “Inhibitory rate (%)” value in data set [1] (dose 0.01 mg/kg p.o.) was 61.4* %.
As for `O=C1N=C2C=CC=CN2C1Cc1ccccc1` (centres unmarked) [compound 14, 3-benzylimidazo[1,2-a]pyridin-2(3H)-one], the melting point was 182 °C (dec.). Further, the inhibition in vivo at 0.01 mg/kg in data set [1] (dose 0.01 mg/kg p.o.) was found to be 53.6%.
In the case of `O=C1N=C2C=CC=CN2C12Cc1ccc3ccccc3c1C2` (centres unmarked) [compound 27, spiro[imidazo[1,2-a]pyridin-2(3H)-one-3,2′-benzo[e]-indan]], the “Inhibitory rate (%)” value in data set [1] (dose 1 mg/kg p.o.) is on record as 64.9** %.
In the case of `O=C1N=C2CCCCN2C12Cc1ccccc1C2` [compound 33, spiro[5,6,7,8-tetrahydroimidazo[1,2-a]pyridin-2(3H)-one-3,2′-indan]], in data set [1] (dose 0.01 mg/kg p.o.), the “Inhibitory rate (%)” value is reported as 66.1** %.
For `Nc1c2c(nc3ccccc13)CCCC2` [compound B, 9-amino-1,2,3,4-tetrahydro-acridine, reference compound], the inhibition in vivo at 0.01 mg/kg in data set [1] (dose 0.01 mg/kg p.o.) turned out to be 24.1%. In data set [1] (dose 1 mg/kg p.o.), the inhibition in vivo at 1 mg/kg is 54.9%.
Regarding `N#Cc1cccc2c1CC1(C2)C(=O)N=C2C=CC=CN21` (centres unmarked) [compound 21, spiro[imidazo[1,2-a]pyridin-2(3H)-one-3,2′-(4′-cyanoindan)]], in data set [1] (dose 1 mg/kg p.o.), the “Inhibitory rate (%)” value is reported as 52.4* %.
In turn, `CC1=CN2C(=NC(=O)C2(Cc2ccccc2)Cc2ccccc2)S1` [compound 6, 5,5-dibenzyl-2-methylimidazo[2,1-b]thiazol-6(5H)-one] displayed a melting point greater than 300 °C. Moreover, the inhibition in vivo at 0.01 mg/kg in data set [1] (dose 0.01 mg/kg p.o.) was determined as 66.6%.
`O=C1N=C2SCCN2C1(Cc1ccccc1)Cc1ccccc1` [compound 9, 5,5-dibenzyl-2,3-dihydroimidazo[2,1-b]thiazol-6(5H)-one] had a melting point of 233 to 236 °C. Further, the inhibition in vivo at 0.01 mg/kg in data set [1] (dose 0.01 mg/kg p.o.) came out at 86.6%.
Take `O=C1N=C2c3ccccc3C=CN2C12Cc1ccccc1C2` [compound 22, spiro[imidazo[2,1-a]isoquinolin-2(3H)-one-3,2′-indan]]: the “Inhibitory rate (%)” value in data set [1] (dose 0.01 mg/kg p.o.) was 76.5** %.
For the compound `CCCC1(CCC)C(=O)N=C2CCCCN21` [compound 15, 3,3-dipropyl-5,6,7,8-tetrahydroimidazo[1,2-a]pyridin-2(3H)-one], the inhibition in vivo at 1 mg/kg in data set [1] (dose 1 mg/kg p.o.) was found to be 61.5%.
Consider `O=C1N=C2C=CC=CN2C12Cc1cc3ccccc3cc1C2` [compound 11, spiro[imidazo[1,2-a]pyridin-2(3H)-one-3,2′-benzo[f]-indan]], for which, in data set [1] (dose 0.01 mg/kg p.o.), the “Inhibitory rate (%)” value was 80.4** %.
On to `O=C1N=C2SC=CN2C1(Cc1cccs1)Cc1cccs1` [compound 7, 5,5-bis(2-thienylmethyl)imidazo[2,1-b]thiazol-6(5H)-one], for which the melting point was 286 °C (dec.).
